Patent US9708286B2, “Ingenol-3-acylates III and ingenol-3-carbamates” (LEO Laboratories Limited, priority 2010, dated 2017)
Like-named read-outs stand apart in the source and are kept apart here.

How the values were obtained:
Type in all cases: cell-based
[1] = system: PMN's (polymorphonuclear leukocytes); test: Neutrophil oxidative burst; settings: Leukocyte, 40 min, normalized to 5×10^−7 M PEP0005
Experimental: PMN's (polymorphonuclear leukocytes) were isolated and purified from fresh buffy coats by sequential sedimentation, density centrifugation and lysis of contaminating erythrocytes. Buffy coats were incubated with 2% methocel for 30-45 min to differentially sediment red blood cells. The leukocyte-rich supernatant was transferred to lymphoprep tubes to remove mononuclear cells by density centrifugation (400×g, 30 min). The pellet was resuspended and any remaining erythrocytes lysed using 0.2% NaCl for 30 sec before restoring isotonicity by the addition of 1.2% NaCl. This step was repeated until the cell pellet appears relatively free of red blood cells. Cells were resuspended in DPBS (Dulbecco's Phosphate Buffered Saline) (w.o. Ca^2+, Mg^2+) and the concentration adjusted to 1.4×10^6 cells/ml in HBSS (Hanks Balanced Salt solution) (w Ca^2+, Mg^2±) containing 0.1% BSA (Bovine Serum Albumin) and 5 mM glucose just prior to assay initiation. Titrated reference and test compounds were pre-mixed with HE (Hydroethidine) (10 μM final assay concentration) before addition to 96-well plates containing 2.5×10^5 cells. Following 40 min incubation at RT, changes in the respiratory burst was estimated by measuring fluorescence at 579 nm (excitation: 485 nm) using an Envision plate reader.
Test compound titration curves were fitted to a four-parameter sigmoidal curve after normalizing the effect of the test compound to the effect of the positive control (5×10^−7 M PEP0005). Rel EC50 denotes the concentration of test compound producing an effect that is midway between the fitted top and bottom. Abs EC50 is the concentration of test compound that provokes a response corresponding to 50% of the maximal effect associated with the positive control (5×10^−7 M PEP0005).

[2] = system: Primary human epidermal keratinocytes, HeKa; test: HeKa cytokine release (IL-8); settings: Homo sapiens, read-out: HeKa cytokine release (IL-8) Rel EC50 range
Experimental: Primary human epidermal keratinocytes, HeKa, were seeded (10.000 cells/well) in 96-well plates the day before the assay. Test compounds were diluted in DMSO (dimethyl sulfoxide) and further diluted in assay medium and pipetted into wells of 96 well-plates containing HeKa cells. The plates were incubated for 6 h at 37° C. in humidified air with 5% CO2. Plates were centrifuged briefly to spin down cells at 4° C., the supernatant was removed and analysed by Meso Scale Discovery (MSD) 4-spot cytokine assay (Pro-inflammatory II Ultra Sensitive kit, MSD, MD, USA). The MSD assay employs a sandwich immunoassay format where capture antibodies are coated in a patterned array on the bottom of the wells of a 4-Spot-Multi-MSD plate. Standard samples were incubated in the MULTI-SPOT plates as well, and the cytokine (IL-8) binds to its corresponding capture antibody spot. The cytokine level was quantitated on a SECTOR™ Imager using a cytokine-specific Detection Antibody labelled with MSD SULFO-TAG™ reagent.
Test compound titration curves were fitted to a four-parameter sigmoidal curve after normalizing the effect of the test compound to the effect of the positive control (1.5×10^−7 M PEP0005). Rel EC50 denotes the concentration of test compound producing an effect that is midway between the fitted top and bottom.

HeLa cells = test: Necrosis assay; settings: Homo sapiens, 0.5 h, read-out: HeLa necrosis EC50 range
Experimental: HeLa cells (ATCC CCL-002) were grown in minimal essential medium (Invitrogen catalog no. 42360) containing 10% fetal bovine serum, 100 IU/ml penicillin and 100 μg/ml streptomycin. 4,000-6,000 cells were seeded into 96-well black ViewPlates-plates, clear bottom, (Perkin Elmer) in 100 μl medium and incubated overnight. Compounds were dissolved and pre-diluted in DMSO in 96-well polypropylene plates (Greiner) in a concentration range of 15 μM to 600 μM. At the time of the experiment cell plates were placed on heating blocks at 37° C., medium was removed and 40 μl fresh, pre-warmed medium was added per well. Cells were incubated for 15 min before addition of compounds. In parallel, 3 μl of compounds were diluted with 197 μl growth medium on a Tecan freedom-EVO pipetting station using 250 μl/s pipetting speed, in order to ensure effective mixing of the highly concentrated compound solutions with the aqueous phase. These pre-dilution plates were then equilibrated on heating blocks at 37° C. for 10 min. 80 μl pre-diluted compound were transferred manually to the corresponding wells containing HeLa cells yielding compound concentrations of 10 μM to 400 μM. Control conditions were 1% DMSO in growth medium (100% viability) and 400 μM ingenol mebutate in growth medium (0% viability). Plates were incubated on the heating blocks at 37° C. for 30 min. At the end of the incubation 10 μl PrestoBlue reagent (Invitrogen) were added to each well, plates were sealed with black seal, followed by incubation at 37° C. for 10 min with gentle shaking (150 rpm). Subsequently, plates were placed at room temperature for 20-30 min. Plates were read immediately after on an Envision Fluorescence reader (Perkin Elmer) with excitation at 535 nm and emission at 630 nm. Test compound titration curves were fitted to a four-parameter sigmoidal curve after normalizing the effect of the test compound to the effect of the positive control (4 10^−4 M PEP0005/ingenol mebutate). AbsEC50 denotes the concentration of test compound producing 50% effect.

[3] = read-out: Neutrophil oxidative burst Rel EC50 range, PMN from buffy coats, 40 min at RT, hydroethidine fluorescence

Compound	EC50 [1, 3] [nM]	EC50 ([2]; HEKa, 6 h) [nM]	EC50 (HeLa cells; HeLa) [µM]	EC50 ([1]; PMN from buffy coats, 40 min at RT, hydroethidine fluorescence, read-out: Neutrophil oxidative burst Rel EC50 range) [nM]	EC50 ([2]; HeKa cells, 6 h at 37° C., IL-8 by MSD assay, normalized to 1.5×10^−7 M PEP0005) [nM]	EC50 (HeLa cells; HeLa cells, 30 min at 37° C., PrestoBlue, AbsEC50, normalized to 400 μM ingenol mebutate) [µM]
CC1=C[C@]23C(=O)[C@@H](C=C(CO)[C@@H](O)[C@]2(O)[C@H]1OC(=O)c1ccnn1-c1ccccc1)[C@H]1[C@@H](C[C@H]3C)C1(C)C [Compound 505, Ingenol 3-(2-phenylpyrazole-3-carboxylate)]	< 20	< 20	< 150			
CC1=C[C@]23C(=O)[C@@H](C=C(CO)[C@@H](O)[C@]2(O)[C@H]1OC(=O)c1nn(C)c2ccccc12)[C@H]1[C@@H](C[C@H]3C)C1(C)C [Compound 506, Ingenol 3-(1-methylindazole-3-carboxylate)]	< 20	< 20	< 150			
CCc1noc(C)c1C(=O)O[C@H]1C(C)=C[C@]23C(=O)[C@@H](C=C(CO)[C@@H](O)[C@]12O)[C@H]1[C@@H](C[C@H]3C)C1(C)C [Compound 507, Ingenol 3-(3-ethyl-5-methyl-isoxazole-4-carboxylate)]	< 20	< 20	150 to 350			
CC1=C[C@]23C(=O)[C@@H](C=C(CO)[C@@H](O)[C@]2(O)[C@H]1OC(=O)c1c(C)noc1C)[C@H]1[C@@H](C[C@H]3C)C1(C)C [Compound 508, Ingenol 3-(3-methyl-5-methyl-isoxazole-4-carboxylate)]	< 20	< 20	150 to 350			
CC1=C[C@]23C(=O)[C@@H](C=C(CO)[C@@H](O)[C@]2(O)[C@H]1OC(=O)c1sccc1-c1ccccc1)[C@H]1[C@@H](C[C@H]3C)C1(C)C [Compound 510, Ingenol 3-(3-phenylthiophene-2-carboxylate)]	20 to 100	< 20	< 150			
CC1=C[C@]23C(=O)[C@@H](C=C(CO)[C@@H](O)[C@]2(O)[C@H]1OC(=O)c1cnnc2ccccc12)[C@H]1[C@@H](C[C@H]3C)C1(C)C [Compound 514, Ingenol 3-(cinnoline-4-carboxylate)]	> 100	> 100	< 150			
CC1=C[C@]23C(=O)[C@@H](C=C(CO)[C@@H](O)[C@]2(O)[C@H]1OC(=O)c1ncoc1-c1ccccc1)[C@H]1[C@@H](C[C@H]3C)C1(C)C [Compound 516, Ingenol 3-(5-phenyloxazole-4-carboxylate)]	< 20	20 to 100	< 150			
CC1=C[C@]23C(=O)[C@@H](C=C(CO)[C@@H](O)[C@]2(O)[C@H]1OC(=O)c1noc2ccccc12)[C@H]1[C@@H](C[C@H]3C)C1(C)C [Compound 517, Ingenol 3-(1,2-benzoxazole-3-carboxylate)]	20 to 100	> 100	< 150			
CC1=C[C@]23C(=O)[C@@H](C=C(CO)[C@@H](O)[C@]2(O)[C@H]1OC(=O)c1c(C(C)C)noc1C)[C@H]1[C@@H](C[C@H]3C)C1(C)C [Compound 518, Ingenol 3-(3-isopropyl-5-methyl-isoxazole-4-carboxylate)]	< 20	< 20	< 150			
COc1ccccc1-c1noc(C)c1C(=O)O[C@H]1C(C)=C[C@]23C(=O)[C@@H](C=C(CO)[C@@H](O)[C@]12O)[C@H]1[C@@H](C[C@H]3C)C1(C)C [Compound 519, Ingenol 3-(3-(2-methoxyphenyl)-5-methyl-isoxazole-4-carboxylate)]	< 20	< 20	< 150			
CC1=C[C@]23C(=O)[C@@H](C=C(CO)[C@@H](O)[C@]2(O)[C@H]1OC(=O)c1c(Cl)cnn1C)[C@H]1[C@@H](C[C@H]3C)C1(C)C [Compound 522, Ingenol 3-(4-chloro-2-methyl-pyrazole-3-carboxylate)]	< 20	< 20	150 to 350			
CC1=C[C@]23C(=O)[C@@H](C=C(CO)[C@@H](O)[C@]2(O)[C@H]1OC(=O)c1ncncc1Br)[C@H]1[C@@H](C[C@H]3C)C1(C)C [Compound 523, Ingenol 3-(5-bromopyrimidine-4-carboxylate)]	20 to 100	> 100	> 350			
CC1=C[C@]23C(=O)[C@@H](C=C(CO)[C@@H](O)[C@]2(O)[C@H]1OC(=O)c1ncsc1C)[C@H]1[C@@H](C[C@H]3C)C1(C)C [Compound 525, Ingenol 3-(5-methylthiazole-4-carboxylate)]	20 to 100	> 100	> 350			
CC1=C[C@]23C(=O)[C@@H](C=C(CO)[C@@H](O)[C@]2(O)[C@H]1OC(=O)c1nn(C)cc1Cl)[C@H]1[C@@H](C[C@H]3C)C1(C)C [Compound 526, Ingenol 3-(4-chloro-1-methyl-pyrazole-3-carboxylate)]	20 to 100	> 100	> 350			
CC1=C[C@]23C(=O)[C@@H](C=C(CO)[C@@H](O)[C@]2(O)[C@H]1OC(=O)c1sc(C)nc1C)[C@H]1[C@@H](C[C@H]3C)C1(C)C [Compound 527, Ingenol 3-(2,4-dimethylthiazole-5-carboxylate)]	< 20	20 to 100	150 to 350			
CC1=C[C@]23C(=O)[C@@H](C=C(CO)[C@@H](O)[C@]2(O)[C@H]1OC(=O)c1nc(C)oc1C)[C@H]1[C@@H](C[C@H]3C)C1(C)C [Compound 528, Ingenol 3-(2,5-dimethyloxazole-4-carboxylate)]	20 to 100	> 100	> 350			
CC1=C[C@]23C(=O)[C@@H](C=C(CO)[C@@H](O)[C@]2(O)[C@H]1OC(=O)c1c(C)coc1C)[C@H]1[C@@H](C[C@H]3C)C1(C)C [Compound 529, Ingenol 3-(2,4-dimethylfuran-3-carboxylate)]	< 20	< 20	< 150			
CCc1noc(CC)c1C(=O)O[C@H]1C(C)=C[C@]23C(=O)[C@@H](C=C(CO)[C@@H](O)[C@]12O)[C@H]1[C@@H](C[C@H]3C)C1(C)C [Compound 530, Ingenol 3-(3,5-diethylisoxazole-4-carboxylate)]				< 20	< 20	< 150
